From PubChem BioAssay (NCI)
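GI50 = concentration required for 50% inhibition of growth. TGI: concentration producing complete growth inhibition.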

Experiments:
Assay in all cases: NCI tumour cell line growth inhibition, 384-well format
[1] = system: HOP-62 NSCLC
[2] = system: NCI-H322M lung
[3] = system: SNB-19 CNS
[4] = system: SF-295 CNS
[5] = system: ACHN renal
[6] = system: MOLT-4 leukemia
[7] = system: IGROV1 ovarian
[8] = system: SNB-75 CNS
[9] = system: SK-MEL-28 melanoma
[10] = system: NCI/ADR-RES ovarian
[11] = system: MCF7 breast
[12] = system: HL-60(TB) leukemia
[13] = system: SF-268 CNS
[14] = system: PC-3 prostate
[15] = system: HT29 colon
[16] = system: EKVX NSCLC
[17] = system: HOP-92 NSCLC
[18] = system: UACC-257 melanoma
[19] = system: SK-OV-3 ovarian
[20] = system: DU-145 prostate
[21] = system: MDA-MB-468 breast
[22] = system: NCI-H460 NSCLC
[23] = system: OVCAR-5 ovarian
[24] = system: KM12 colon
[25] = system: SK-MEL-5 melanoma
[26] = system: HCC-2998 colon
[27] = system: TK-10 renal
[28] = system: T-47D breast
[29] = system: SF-539 CNS
[30] = system: NCI-H226 lung
[31] = system: RXF 393 renal
[32] = system: OVCAR-8 ovarian
[33] = system: A498 renal
[34] = system: NCI-H23 lung
[35] = system: MALME-3M melanoma
[36] = system: MDA-MB-435 melanoma
[37] = system: U251 glioblastoma
[38] = system: SR leukemia
[39] = system: LOX IMVI melanoma
[40] = system: HS 578T breast
[41] = system: M14 melanoma
[42] = system: OVCAR-4 ovarian
[43] = system: HCT-116 colon
[44] = system: COLO 205 colon
[45] = system: BT-549 breast
[46] = system: MDA-MB-231 breast
[47] = system: CAKI-1 renal
[48] = system: RPMI-8226 leukemia
[49] = system: SN12C renal
[50] = system: UACC-62 melanoma
[51] = system: HCT-15 colon
[52] = system: NCI-H522 lung
[53] = system: A549 NSCLC
[54] = system: OVCAR-3 ovarian

NC(=O)c1cnc(N[C@@H]2CCCC[C@@H]2N)nc1Nc1cccc(-n2nccn2)c1
GI50 [1]: 462 nM
TGI [1]: 2060 nM
GI50 [2]: 1130 nM
TGI [2]: 2430 nM
GI50 [3]: 1310 nM
TGI [3]: 4000 nM
GI50 [4]: 1650 nM
TGI [4]: 3060 nM
GI50 [5]: 1280 nM
TGI [5]: 2570 nM
GI50 [6]: 1140 nM
TGI [6]: 2370 nM
GI50 [7]: 631 nM
TGI [7]: 2290 nM
GI50 [8]: 1410 nM
TGI [8]: 3230 nM
GI50 [9]: 1380 nM
TGI [9]: 2690 nM
GI50 [10]: 9300 nM
TGI [10]: 21500 nM
GI50 [11]: 225 nM
TGI [11]: 1770 nM
GI50 [12]: 12.6 nM
TGI [12]: 153 nM
GI50 [13]: 1560 nM
TGI [13]: 3110 nM
GI50 [14]: 617 nM
TGI [14]: 2430 nM
GI50 [15]: 502 nM
TGI [15]: 1980 nM
GI50 [16]: 1420 nM
TGI [16]: 2920 nM
GI50 [17]: 1270 nM
TGI [17]: 2980 nM
GI50 [18]: 1100 nM
TGI [18]: 2300 nM
GI50 [19]: 623 nM
TGI [19]: 2820 nM
GI50 [20]: 1250 nM
TGI [20]: 2980 nM
GI50 [21]: 1440 nM
TGI [21]: 2810 nM
GI50 [22]: 1410 nM
TGI [22]: 2770 nM
GI50 [23]: 769 nM
TGI [23]: 2340 nM
GI50 [24]: 410 nM
TGI [24]: 1690 nM
GI50 [25]: 145 nM
TGI [25]: 1130 nM
GI50 [26]: 415 nM
TGI [26]: 1850 nM
GI50 [27]: 438 nM
TGI [27]: 1840 nM
GI50 [28]: 1410 nM
TGI [28]: 2780 nM
GI50 [29]: 1290 nM
TGI [29]: 2590 nM
GI50 [30]: 1210 nM
TGI [30]: 2510 nM
GI50 [31]: 1510 nM
TGI [31]: 2910 nM
GI50 [32]: 1140 nM
TGI [32]: 2410 nM
GI50 [33]: 1040 nM
TGI [33]: 2260 nM
GI50 [34]: 801 nM
TGI [34]: 2150 nM
GI50 [35]: 1230 nM
TGI [35]: 2490 nM
GI50 [36]: 571 nM
TGI [36]: 1920 nM
GI50 [37]: 1390 nM
TGI [37]: 2750 nM
GI50 [38]: 183 nM
TGI [38]: 1470 nM
GI50 [39]: 372 nM
TGI [39]: 1450 nM
GI50 [40]: 1080 nM
TGI [40]: 2320 nM
GI50 [41]: 714 nM
TGI [41]: 2030 nM
GI50 [42]: 236 nM
TGI [42]: 1980 nM
GI50 [43]: 1030 nM
TGI [43]: 2320 nM
GI50 [44]: 761 nM
TGI [44]: 2060 nM
GI50 [45]: 848 nM
TGI [45]: 2110 nM
GI50 [46]: 1150 nM
TGI [46]: 3770 nM
GI50 [47]: 473 nM
TGI [47]: 1830 nM
GI50 [48]: 227 nM
TGI [48]: 1350 nM
GI50 [49]: 178 nM
TGI [49]: 1630 nM
GI50 [50]: 305 nM
TGI [50]: 1810 nM
GI50 [51]: 1230 nM
TGI [51]: 2610 nM
GI50 [52]: 274 nM
TGI [52]: 1590 nM
GI50 [53]: 1310 nM
TGI [53]: 2700 nM
GI50 [54]: 1020 nM
TGI [54]: 2300 nM
